ChEMBL document CHEMBL1201862, “PubChem BioAssay data set” (2004)
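Growth conditions: 96-well plates. Treatment: test compound, 48 hours, 5 concentrations. Analysis: linear interpolation between bracketing concentrations; unreached endpoints set to highest concentration. At the GI50, growth is halved.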 Activity calls are given as the source filed them. No stated cut-off is given here; in the data, active = GI50 up to about 1.1 µM and inactive = higher.

Legend:
Experiment in all cases: NCI anticancer screen, dose series, 48 h
PC-3 = system: PC-3
UO-31 = system: UO-31
DU-145 = system: DU-145
MOLT-4 = system: MOLT-4
NCI-H460 = system: NCI-H460
MCF7 = system: MCF7
SW-620 = system: SW-620
RXF 393 = system: RXF 393
K562 = system: K562
SNB-75 = system: SNB-75
UACC-62 = system: UACC-62
A498 = system: A498
LOX IMVI = system: LOX IMVI
HOP-92 = system: HOP-92
SK-MEL-28 = system: SK-MEL-28
Hs-578T = system: Hs-578T
A549 = system: A549
SN12C = system: SN12C
COLO 205 = system: COLO 205
CCRF-CEM = system: CCRF-CEM

Measured: GI50

C=CCCC(=O)C(=[N+]=[N-])C(=O)CCC(=O)c1ccccc1
inactive: PC-3 > 10 µM | UO-31 > 10 µM | DU-145 > 10 µM | MOLT-4 > 10 µM | NCI-H460 > 10 µM | MCF7 > 10 µM | SW-620 > 10 µM | RXF 393 > 10 µM | K562 > 10 µM | SNB-75 8.38 µM | UACC-62 > 10 µM | A498 > 10 µM | LOX IMVI > 10 µM | HOP-92 > 10 µM | SK-MEL-28 > 10 µM | Hs-578T > 10 µM | A549 > 10 µM | SN12C > 10 µM

Nc1ccc(-c2nnc(-c3c(Cl)c(Cl)c(Cl)c(Cl)c3-c3nc4cc(C(=O)c5ccccc5)ccc4[nH]3)o2)cc1
inactive: PC-3 16.6 µM | UO-31 35.7 µM | COLO 205 18.6 µM | DU-145 24.8 µM | MOLT-4 15.9 µM | MCF7 16 µM | SW-620 29.5 µM | CCRF-CEM 14.8 µM | RXF 393 10.9 µM | K562 8 µM | SNB-75 24 µM | A498 18.5 µM | LOX IMVI 34.6 µM | HOP-92 27.2 µM | SK-MEL-28 28.5 µM | Hs-578T 28 µM | A549 28.1 µM | SN12C 16.8 µM

COc1ccccc1Cc1ccc(C2C=CC3(CC(=O)C=C3C)C(=O)C2)o1 (stereo unspecified)
inactive: PC-3 16.1 µM | UO-31 29.1 µM | COLO 205 23.2 µM | DU-145 29.4 µM | MOLT-4 16 µM | NCI-H460 30.5 µM | MCF7 17.1 µM | SW-620 18.5 µM | RXF 393 17.4 µM | K562 20 µM | UACC-62 13.9 µM | A498 20 µM | LOX IMVI 17.3 µM | HOP-92 20.5 µM | SK-MEL-28 34.4 µM | Hs-578T 20.2 µM | A549 33.9 µM | SN12C 22 µM

C=C(Br)C(C)(Br)CCC(Br)C(C)(C)Cl (stereo unspecified)
inactive: PC-3 20.4 µM | UO-31 17.7 µM | COLO 205 18.5 µM | DU-145 21.5 µM | MOLT-4 2.54 µM | NCI-H460 18.3 µM | MCF7 14.5 µM | SW-620 13 µM | CCRF-CEM 2.96 µM | RXF 393 20 µM | K562 10.2 µM | SNB-75 16.5 µM | UACC-62 20.4 µM | A498 20.8 µM | HOP-92 14.6 µM | SK-MEL-28 16.3 µM | Hs-578T 26.4 µM | A549 > 54.7 µM | SN12C 20.2 µM

CCCCCCCC(=O)N1C2CC3CCC2(CS1(=O)=O)C3(C)C (stereo unspecified)
inactive: PC-3 23.7 µM | UO-31 22.6 µM | COLO 205 21.8 µM | DU-145 36.6 µM | MOLT-4 17.3 µM | NCI-H460 30.1 µM | MCF7 18.7 µM | SW-620 23.3 µM | CCRF-CEM 16.5 µM | RXF 393 13.3 µM | SNB-75 24.7 µM | UACC-62 22.8 µM | A498 76.9 µM | HOP-92 20.6 µM | SK-MEL-28 14.4 µM | Hs-578T 15.6 µM | A549 27 µM | SN12C 20.9 µM

Cn1cc[n+](-c2cc(=O)n(C)c(=O)[n-]2)c1
inactive: PC-3 > 100 µM | UO-31 44.3 µM | COLO 205 96.4 µM | DU-145 > 100 µM | MOLT-4 77.8 µM | NCI-H460 > 100 µM | MCF7 93.5 µM | SW-620 > 100 µM | CCRF-CEM > 100 µM | RXF 393 > 100 µM | K562 81.8 µM | UACC-62 > 100 µM | A498 > 100 µM | LOX IMVI > 100 µM | HOP-92 > 100 µM | SK-MEL-28 > 100 µM | Hs-578T 42.8 µM | A549 > 100 µM | SN12C > 100 µM

O=c1c2cc(Br)cc(Br)c2[nH]c(=S)n1-c1ccc(/N=N/c2ccc(O)c3cccnc23)cc1
inactive: PC-3 39.9 µM | UO-31 34.9 µM | COLO 205 32.1 µM | DU-145 33 µM | MOLT-4 24.8 µM | MCF7 12.9 µM | SW-620 29.8 µM | RXF 393 55.2 µM | K562 10.7 µM | SNB-75 29.2 µM | A498 > 100 µM | LOX IMVI 24.5 µM | HOP-92 18 µM | SK-MEL-28 76.9 µM | Hs-578T > 100 µM | A549 17.8 µM | SN12C 44.5 µM

Cc1ccc([N+](=O)[O-])cc1S(=O)(=O)Nc1ccc(C2=NN(S(=O)(=O)c3cc([N+](=O)[O-])ccc3C)C(c3cccs3)C2)cc1 (stereo unspecified)
inactive: PC-3 30 µM | UO-31 34.5 µM | COLO 205 9.59 µM | DU-145 51.3 µM | MOLT-4 22.4 µM | NCI-H460 28.2 µM | MCF7 10.7 µM | SW-620 49.7 µM | RXF 393 56.5 µM | K562 24.2 µM | SNB-75 > 100 µM | UACC-62 15.8 µM | A498 13.8 µM | LOX IMVI 57 µM | HOP-92 33.7 µM | SK-MEL-28 65.8 µM | Hs-578T 12.8 µM | A549 32.7 µM | SN12C 33.7 µM
